According to US20210120812A1, “FRESHNESS-RETENTIVE FILM” (MITSUI CHEMICALS TOHCELLO, INC., priority 2013, published 2021):

System: Escherichia coli (E. coli)
Experiment: Antibacterial test according to JIS Z2801 using E. coli (film surface not wiped with alcohol)
Type: cell-based
Conditions: judgement in the text
Description: For example, in an antibacterial test according to JIS Z2801, a predetermined amount of Escherichia coli (E. coli) or the like is added to a 1/500 nutrient broth. The nutrient broth is dropped onto the surface of the film of a 4 cm square, and is covered with a polyethylene film. The sample is placed at 35° C. After 24 hours, the surface of the freshness-retentive film is washed to recover the nutrient broth. The number of bacterial cells is measured with a nutrient agar. In this test method, alkyldiethanolamine should be diffused in the nutrient broth (solution) in a concentration of 30 ppm or more.
An antibacterial test was performed using Escherichia coli (E. coli) according to JIS Z2801. To keep the state of the surface of the freshness-retentive film, the surface thereof was not wiped with alcohol.
Predetermined amounts of Escherichia coli (E. coli), Staphylococcus aureus, Salmonella, and Vibrio parahaemolyticus (broth (0.4 cc) used in a JIS test) were added to a 1/500 nutrient broth. The nutrient broth was dropped onto the surface of a freshness-retentive film of a 4 cm square, and was covered with a polyethylene film. The film was placed at 35° C., and after 24 hours, the surface of the freshness-retentive film was washed. The washing liquid containing the nutrient broth was recovered, and was cultured on a nutrient agar. The number of colonies was counted.
Since the number of bacterial cells is difficult to count under a microscope, the number of colonies was visually counted. The number of colonies per gram (g) was defined as the number of living bacterial cells CFU (colony forming unit) (unit: [colonies/g]). A sample sandwiched between two polyethylene films was used as a control (Control) for comparison. In Tables, the averages at n=1 to 3 are also shown. If a fluctuation in the measured values is 10 times or more, the average is not calculated according to the JIS specification.
An antibacterial test was performed in the same manner as in Experiment 1.
An antibacterial test was performed in the same manner as in Experiment 1. […]

Compound | antibacterial characteristics against E. coli (in words)
diglycerol monopalmitate | does not inhibit the antibacterial activity of stearyldiethanolamine
CCCCCCCCCCCCCCCCCCN(CCO)CCO [stearyldiethanolamine] | significantly superior to those of stearyldiethanolamine monostearate
CCCCCCCCCCCCCCCCCC(=O)OCC(O)CO (stereo not drawn) [glycerol monostearate] | inhibits the antibacterial activity of stearyldiethanolamine
